As a reminder, the MIC is the lowest concentration that inhibits growth of the organism. Low readings indicate greater potency, high ones weaker potency.

In brackets after ≈: the same amount, converted by molar mass. Where two headings read alike, the source gives them in different places. Peptide text beside a SMILES is read from it.

The test system of one data set is A. baumannii KCTC 2508. Type of data set: cell-based, Acinetobacter baumannii. How it is done: (§1) We detected the antimicrobial activity of peptides against Gram-negative bacteria (P. aeruginosa ATCC 27853 and A. baumannii KCTC 2508) and Gram-positive bacteria (S. aureus ATCC 25923 and B. subtilis KCTC 2217). The minimum inhibitory concentrations (MICs) of the parental and truncated peptides were determined using the microbroth dilution method, as previously described (Jorgensen [1993]). The bacteria were incubated overnight with shaking at 37 °C. The bacteria were diluted to 2 × 10^5 colony forming units (CFU)/mL in Mueller–Hinton broth (MHB) media. The peptides were serially diluted in 10 mM sodium phosphate buffer and then 50 µL of the bacteria and 50 µL of the peptide solutions were mixed and incubated for 18 h at 37 °C. The MICs were measured as the absorbance at 600 nm using a Versa Max microplate reader (Molecular Devices, Sunnyvale, CA, USA). The samples were analyzed in triplicate.

The next data set deals with B. subtilis KCTC 2217. Type of data set: cell-based, Bacillus subtilis. The protocol:
as §1

A further data set relates to HaCaT cells. The data set can be described thus: Cytotoxicity, MTT assay. Type of data set: cell-based, human. The settings on record: 24 h, 1.56 µM. How it is done: Human skin epithelial cells (HaCaT cells) were cultured in Dulbecco’s modified Eagle’s medium (DMEM) with 10% fetal bovine serum (FBS) at 37 °C in 5% CO2. Cytotoxicity was determined using the MTT assay (Deng et al. [2015]). HaCaT cells were plated at 2 × 10^4 cells/well in 96-well plates. After overnight incubation, the peptides were added at various concentrations for 24 h, and then 5 mg/mL of MTT was added to each well. After 1 h, the supernatant was removed and 100 μL of DMSO was added to each well to dissolve the formazan crystals. Cytotoxicity was measured at an absorbance of 570 nm using a microplate reader (VersaMax). The cell viability percentage (cell viability rate) was calculated using the following equation (Kim et al. [2018]): Cell viability percentage%=peptide treated sample[…]×100.
(In general: Tetrazolium assays rely on reduction of a dye to a coloured formazan, in cell work by metabolically active cells.)

The subject of data set [1] is P. aeruginosa ATCC 27853. Type of data set: cell-based, Pseudomonas aeruginosa. As to conditions: ATCC 27853, 18 h. How it is done:
as §1

Data set [2] has as its system S. aureus ATCC 25923. Type of data set: cell-based, Staphylococcus aureus. As to conditions: ATCC 25923, 18 h. How it is done:
as §1

Data set [3] relates to S. aureus ATCC 25923. Type of data set: cell-based, Staphylococcus aureus. The settings on record: ATCC 25923, 18 h. How it is done: as §1
(§2) The effects of various cations on the antimicrobial activity of P5 and the truncated peptides were determined against P. aeruginosa ATCC 27853 and S. aureus ATCC 25923. Bacteria were treated with the peptides in the presence of NaCl (50, 100, and 150 mM), MgCl2 (0.5, 1, and 2 mM), and FeCl3 (1, 4, and 8 µM). The MIC values were the same as those described above.
The source holds these as a separate data set.

In data set [4] the test system is P. aeruginosa ATCC 27853. Type of data set: cell-based, Pseudomonas aeruginosa. As to conditions: ATCC 27853, 18 h. The protocol: as §1, §2
The source holds these as a separate data set.

Data set [5] has as its system red blood cells (RBCs) from mice. The data set can be described thus: Hemolytic activity. Type of data set: cell-based. The settings on record: mouse RBCs 8% in PBS, peptide 100 µM, 1 h at 37 °C, absorbance 414 nm, 0.1% Triton X-100 positive control. The protocol: To determine the hemolytic activities of the peptides against red blood cells (RBCs) from mice, RBCs were centrifuged at 2000×g for 5 min and washed with 1 mL of phosphate-buffered saline solution (PBS) three times. The supernatant was removed and the RBCs were diluted to 8% in PBS. After serial dilution, 60 µL of the RBCs and peptides were added to a 96-well plate and incubated at 37 °C for 1 h. The plate was centrifuged at 1500×g for 10 min, 100 µL of the supernatant was transferred to a new plate, and the absorbance was measured at 414 nm (Versa-Max enzyme-linked immunosorbent assay (ELISA) reader). Additionally, 0.1% Triton X-100 and PBS were used as positive and negative controls, respectively. The hemolytic activity percentage (hemolysis rate) was calculated using the following equation (Han et al. [2016]): Hemolysis percentage%=peptide solution-negative control/positive control-PBS×100.

For the molecule `CC[C@H](C)[C@H](NC(=O)CN)C(=O)NCC(=O)N[C@@H](C)C(=O)N[C@H](C(=O)N[C@@H](CC(C)C)C(=O)N[C@@H](CCCCN)C(=O)N[C@H](C(=O)N[C@@H](CC(C)C)C(=O)N[C@H](C(=O)N[C@H](C(=O)NCC(=O)N[C@@H](CC(C)C)C(=O)N1CCC[C@H]1C(=O)N[C@@H](C)C(=O)N[C@@H](CC(C)C)C(=O)N[C@H](C(=O)N[C@@H](CO)C(=O)N[C@@H](Cc1c[nH]c2ccccc12)C(=O)N[C@H](C(=O)N[C@@H](CCCCN)C(=O)N[C@@H](CCCNC(=N)N)C(=O)N[C@@H](CCCCN)C(=O)N[C@@H](CCCNC(=N)N)C(=O)N[C@@H](CCC(N)=O)C(=O)N[C@@H](CCC(N)=O)C(N)=O)[C@@H](C)CC)[C@@H](C)CC)[C@@H](C)O)[C@@H](C)O)C(C)C)C(C)C` [Melittin, reference compound], the minimal inhibitory concentration (MIC) against A. baumannii KCTC 2508 (A. baumannii KCTC 2508, MHB, 2 × 10^5 CFU/mL, 18 h at 37 °C, absorbance 600 nm, triplicate) was determined as 1.56 µM (≈ 4.44 µg/mL); against B. subtilis KCTC 2217 (B. subtilis KCTC 2217, MHB, 2 × 10^5 CFU/mL, 18 h at 37 °C, absorbance 600 nm, triplicate), 0.78 µM (≈ 2.22 µg/mL). The cytotoxicity result in the data set with HaCaT cells is “highly toxic”.
Turning to `CC(C)C[C@H](NC(=O)[C@H](CC(C)C)NC(=O)[C@H](CCCCN)NC(=O)[C@H](CCCCN)NC(=O)[C@H](CC(C)C)NC(=O)[C@H](CC(C)C)NC(=O)[C@@H]1CCCN1C(=O)[C@H](CCCCN)NC(=O)[C@H](CCCCN)NC(=O)[C@H](CC(C)C)NC(=O)[C@H](CC(C)C)NC(=O)[C@H](CCCCN)NC(=O)[C@H](CCCCN)NC(=O)[C@H](Cc1c[nH]c2ccccc12)NC(=O)[C@@H](N)CCCCN)C(=O)N[C@@H](CCCCN)C(N)=O` [P5-CT1] (H-KWKKLLKKPLLKKLLK-NH2), the minimal inhibitory concentration (MIC) is listed as 1.56 µM (≈ 3.13 µg/mL) against P. aeruginosa ATCC 27853 [1]; 3.13 µM (≈ 6.27 µg/mL) in the data set with A. baumannii KCTC 2508 (KCTC 2508, 18 h); 1.56 µM (≈ 3.13 µg/mL) against S. aureus ATCC 25923 [2]; 1.56 µM (≈ 3.13 µg/mL) against B. subtilis KCTC 2217 (KCTC 2217, 18 h); 0.78 µM (≈ 1.56 µg/mL) in the data set on S. aureus ATCC 25923 [3].
As to `CC(C)C[C@H](NC(=O)[C@H](CCCCN)NC(=O)[C@H](CCCCN)NC(=O)[C@H](CC(C)C)NC(=O)[C@H](CC(C)C)NC(=O)[C@@H]1CCCN1C(=O)[C@H](CCCCN)NC(=O)[C@H](CCCCN)NC(=O)[C@H](CC(C)C)NC(=O)[C@H](CC(C)C)NC(=O)[C@H](CCCCN)NC(=O)[C@H](CCCCN)NC(=O)[C@H](Cc1c[nH]c2ccccc12)NC(=O)[C@@H](N)CCCCN)C(N)=O` [P5-CT2] (H-KWKKLLKKPLLKKL-NH2), the minimal inhibitory concentration (MIC) came out at 6.25 µM (≈ 11 µg/mL) with P. aeruginosa ATCC 27853 [1]; 12.5 µM (≈ 22 µg/mL) in the data set with A. baumannii KCTC 2508 (KCTC 2508, 18 h); 1.56 µM (≈ 2.75 µg/mL) with S. aureus ATCC 25923 [2]; 3.13 µM (≈ 5.52 µg/mL) in the data set on B. subtilis KCTC 2217 (KCTC 2217, 18 h).
For `CC(C)C[C@H](NC(=O)[C@H](CC(C)C)NC(=O)[C@@H]1CCCN1C(=O)[C@H](CCCCN)NC(=O)[C@H](CCCCN)NC(=O)[C@H](CC(C)C)NC(=O)[C@H](CC(C)C)NC(=O)[C@H](CCCCN)NC(=O)[C@H](CCCCN)NC(=O)[C@H](Cc1c[nH]c2ccccc12)NC(=O)[C@@H](N)CCCCN)C(=O)N[C@@H](CCCCN)C(N)=O` [P5-CT3] (H-KWKKLLKKPLLK-NH2), the MIC with P. aeruginosa ATCC 27853 [1] is > 25 µM; against A. baumannii KCTC 2508 (KCTC 2508, 18 h), > 25 µM; in the data set on S. aureus ATCC 25923 [2] it was 3.13 µM (≈ 4.76 µg/mL); with B. subtilis KCTC 2217 (KCTC 2217, 18 h), 6.25 µM (≈ 9.51 µg/mL); against P. aeruginosa ATCC 27853 [4], > 25 µM.
Consider `CC(C)C[C@H](NC(=O)[C@H](CCCCN)NC(=O)[C@H](CCCCN)NC(=O)[C@H](CC(C)C)NC(=O)[C@H](CC(C)C)NC(=O)[C@H](CCCCN)NC(=O)[C@H](CCCCN)NC(=O)[C@H](CC(C)C)NC(=O)[C@H](CC(C)C)NC(=O)[C@@H]1CCCN1C(=O)[C@H](CCCCN)NC(=O)[C@H](CCCCN)NC(=O)[C@H](CC(C)C)NC(=O)[C@H](CC(C)C)NC(=O)[C@H](CCCCN)NC(=O)[C@@H](N)CCCCN)C(N)=O` [P5-NT1] (H-KKLLKKPLLKKLLKKL-NH2), for which the minimum inhibitory concentration (MIC) against P. aeruginosa ATCC 27853 [1] was 1.56 µM (≈ 3.01 µg/mL); against A. baumannii KCTC 2508 (KCTC 2508, 18 h) it was 3.13 µM (≈ 6.05 µg/mL); in the data set with S. aureus ATCC 25923 [2], 1.56 µM (≈ 3.01 µg/mL); against B. subtilis KCTC 2217 (KCTC 2217, 18 h), 1.56 µM (≈ 3.01 µg/mL); with S. aureus ATCC 25923 [3], 0.78 µM (≈ 1.51 µg/mL).
With `CC(C)C[C@H](NC(=O)[C@H](CCCCN)NC(=O)[C@H](CCCCN)NC(=O)[C@H](CC(C)C)NC(=O)[C@H](CC(C)C)NC(=O)[C@H](CCCCN)NC(=O)[C@H](CCCCN)NC(=O)[C@H](CC(C)C)NC(=O)[C@H](CC(C)C)NC(=O)[C@@H]1CCCN1C(=O)[C@H](CCCCN)NC(=O)[C@H](CCCCN)NC(=O)[C@H](CC(C)C)NC(=O)[C@@H](N)CC(C)C)C(N)=O` [P5-NT2] (H-LLKKPLLKKLLKKL-NH2), the MIC in the data set on P. aeruginosa ATCC 27853 [1] is given as 3.13 µM (≈ 5.24 µg/mL); with A. baumannii KCTC 2508 (KCTC 2508, 18 h), 12.5 µM (≈ 20.9 µg/mL); in the data set with S. aureus ATCC 25923 [2] it was 1.56 µM (≈ 2.61 µg/mL); with B. subtilis KCTC 2217 (KCTC 2217, 18 h) it was 1.56 µM (≈ 2.61 µg/mL).
Take `CC(C)C[C@H](NC(=O)[C@H](CCCCN)NC(=O)[C@H](CCCCN)NC(=O)[C@H](CC(C)C)NC(=O)[C@H](CC(C)C)NC(=O)[C@H](CCCCN)NC(=O)[C@H](CCCCN)NC(=O)[C@H](CC(C)C)NC(=O)[C@H](CC(C)C)NC(=O)[C@@H]1CCCN1C(=O)[C@H](CCCCN)NC(=O)[C@@H](N)CCCCN)C(N)=O` [P5-NT3] (H-KKPLLKKLLKKL-NH2): the MIC against P. aeruginosa ATCC 27853 [1] came out at 6.25 µM (≈ 9.06 µg/mL); in the data set on A. baumannii KCTC 2508 (KCTC 2508, 18 h), 25 µM (≈ 36.2 µg/mL); against S. aureus ATCC 25923 [2], 1.56 µM (≈ 2.26 µg/mL); with B. subtilis KCTC 2217 (KCTC 2217, 18 h), 1.56 µM (≈ 2.26 µg/mL); against S. aureus ATCC 25923 [3], 0.78 µM (≈ 1.13 µg/mL).
On to `CC(C)C[C@H](NC(=O)[C@H](CCCCN)NC(=O)[C@H](CCCCN)NC(=O)[C@H](CC(C)C)NC(=O)[C@H](CC(C)C)NC(=O)[C@H](CCCCN)NC(=O)[C@H](CCCCN)NC(=O)[C@H](CC(C)C)NC(=O)[C@H](CC(C)C)NC(=O)[C@@H]1CCCN1C(=O)[C@H](CCCCN)NC(=O)[C@H](CCCCN)NC(=O)[C@H](CC(C)C)NC(=O)[C@H](CC(C)C)NC(=O)[C@H](CCCCN)NC(=O)[C@H](CCCCN)NC(=O)[C@H](Cc1c[nH]c2ccccc12)NC(=O)[C@@H](N)CCCCN)C(N)=O` [P5] (H-KWKKLLKKPLLKKLLKKL-NH2), for which the MIC is listed as 3.13 µM (≈ 7.03 µg/mL) in the data set with P. aeruginosa ATCC 27853 [1]; 1.56 µM (≈ 3.5 µg/mL) with A. baumannii KCTC 2508 (KCTC 2508, 18 h); 1.56 µM (≈ 3.5 µg/mL) in the data set on S. aureus ATCC 25923 [2]; 1.56 µM (≈ 3.5 µg/mL) against B. subtilis KCTC 2217 (KCTC 2217, 18 h); 1.56 µM (≈ 3.5 µg/mL) against S. aureus ATCC 25923 [3]. For the same molecule, the hemolysis entry in data set [5] is reported as “approximately 14%”.

The values are drawn from PMC6667604, “Mechanism of action of antimicrobial peptide P5 truncations against Pseudomonas aeruginosa and Staphylococcus aureus” (AMB Express, 2019).
